Measured values published in patent US10441663B2, “Methods for treating cancer” (Bicycle Therapeutics Limited, priority 2016, dated 2019).
*1 amine or outer side, *2 acyl side, *3 side chain or, on linkers, in order; H or OH if unused. Where a SMILES comes first, the peptide text is derived from it. Bridges are numbered along the chain shown (N, C = ends). [ ]: non-standard residue; d: D form. The star is where a group is joined. X1 = COc1cc2cc(c1Cl)N(C)C(=O)C[C@H](OC(=O)[C@H](C)N(C)C(=O)CCSSC(C)CCC(=O)*)[C@]1(C)O[C@H]1[C@H](C)[C@@H]1C[C@@](O)(NC(=O)O1)[C@H](OC)/C=C/C=C(\C)C2; 1Nal = N[C@@H](Cc1cccc2ccccc12)C(=O)O; TBMB = c1c(C[*:1])cc(C[*:3])cc1C[*:2]; Tle = CC(C)(C)[C@H](N)C(=O)O; βAla = NCCC(=O)O; Sar = CNCC(=O)O

Test system: HT1080 xenograft
Assay: In vivo efficacy of BT1718 in HT1080 xenograft
Set-up: species or system Mus Musculus; key to Best response at 10 mg/kg: CR complete response; PR partial response
Description: The objective of this study was to evaluate the in vivo anti-tumor efficacy of BT1718in treatment of HT1080, NCI-H292, NCI-H1975, MDA-MB-231, HCC1806, RPMI2650, HCT-15, HT-29 and SNU-16 xenograft in BALB/c nude mice.
The HT1080, NCI-H292, NCI-H1975, MDA-MB-231, HCC1806, RPMI2650, HCT-15, HT-29 and SNU-16 tumor cells were maintained in vitro as a monolayer culture in medium supplemented with 10% heat inactivated fetal bovine serum at 37° C. in an […]. The tumor cells will be routinely subcultured twice weekly by trypsin-EDTA treatment. The cells growing in an exponential growth phase will be harvested and counted for tumor inoculation.
Mouse was inoculated subcutaneously at the right flank with tumor cells for tumor development. The animals were randomized and treatment was started when the average tumor reaches certain volume for the efficacy study, the inoculating cell amounts and starting tumor size were shown as below in Table 9. The test article administration and the animal numbers in each group were shown in the experimental design in Table 10.
All the procedures related to animal handling, care and the treatment in the study were performed according to the guidelines of the Association for Assessment and Accreditation of Laboratory Animal Care (AAALAC). At the time of routine monitoring, the animals were daily checked for any effects of tumor growth and treatments on normal behavior such as mobility, food and water consumption (by looking only), body weight gain/loss (body weights were measured every day), eye/hair matting and any other abnormal effect as stated in the protocol. Death and observed clinical signs were recorded on the basis of the numbers of animals within each subset.
The major endpoint was to see if the tumor growth could be delayed or mice could be cured. Tumor size was measured three times weekly in two dimensions using a caliper, and the volume was expressed in mm^3 using the formula: V=0.5 a×b^2 where a and b are the long and short diameters of the tumor, respectively. The tumor size was then used for calculations of T/C value. The T/C value (in percent) is an indication of antitumor effectiveness; T and C are the mean volumes of the treated and control groups, respectively, on a given day.
TGI was calculated for each group using the formula: TGI (%)=[1−(Ti−T0)/(Vi−V0)]×100; Ti is the average tumor volume of a treatment group on a given day, T0 is the average tumor volume of the treatment group on the day of treatment start, Vi is the average tumor volume of the vehicle control group on the same day with Ti, and V0 is the average tumor volume of the vehicle group on the day of treatment start.
Summary statistics, including mean and the standard error of the mean (SEM), are provided for the tumor volume of each group at each time point.
Statistical analysis of difference in tumor volume among the groups was conducted on the data obtained at the best therapeutic time point after the final dose.
A one-way ANOVA was performed to compare tumor volume among groups, and when a significant F-statistics (a ratio of treatment variance to the error variance) was obtained, comparisons between groups were carried out with Games-Howell test. All data were analyzed using Prism. P<0.05 was considered to be statistically significant.

SMILES: COc1cc2cc(c1Cl)N(C)C(=O)C[C@H](OC(=O)[C@H](C)N(C)C(=O)CCSSC(C)CCC(=O)NCCC(=O)N(C)CC(=O)N(C)CC(=O)N(C)CC(=O)N(C)CC(=O)N(C)CC(=O)N(C)CC(=O)N(C)CC(=O)N(C)CC(=O)N(C)CC(=O)N(C)CC(=O)N[C@@H](C)C(=O)N[C@H]1CSCc3cc4cc(c3)CSC[C@H](NC(=O)[C@@H](C)NC(=O)[C@H](Cc3cccc5ccccc35)NC(=O)[C@H](CCC(=O)O)NC(=O)[C@H](CC(N)=O)NC(=O)[C@@H](C)NC1=O)C(=O)N[C@@H](CCC(=O)O)C(=O)N[C@@H](CC(=O)O)C(=O)N[C@@H](Cc1ccccc1)C(=O)N[C@@H](Cc1ccc(O)cc1)C(=O)N[C@@H](CC(=O)O)C(=O)N[C@@H](C(C)(C)C)C(=O)N[C@H](C(N)=O)CSC4)[C@]1(C)O[C@H]1[C@H](C)[C@@H]1C[C@@](O)(NC(=O)O1)[C@H](OC)/C=C/C=C(\C)C2 (stereo partly drawn) [BT1718] ({X1-βAla}-[Sar][Sar][Sar][Sar][Sar][Sar][Sar][Sar][Sar][Sar]AC[dA]NE[1Nal][dA]CEDFYD[Tle]C-NH2; linker 12-18-25 via TBMB (inferred))
- animals with transient response on re-dosing (3 mg/kg biw): 1/3
- animals that ultimately re-grew despite dosing (3 mg/kg biw re-dosing): 3/3
- re-growth during dosing suspension (10 mg/kg biw, suspension period of 2 months): did not re-grow
- response on re-dosing of the relapsed animal (10 mg/kg qw, re-growth in weeks 3-4 of re-dosing): transient response
- Body Weight (1 mpk biw, day 0): 22.7 ± 0.5 g
- Tumor Volume (1 mpk biw, day 0): 177 ± 6 mm^3
- Body Weight (1 mpk biw, day 2): 22.2 ± 0.4 g
- Tumor Volume (1 mpk biw, day 2): 265 ± 33 mm^3
- Body Weight (1 mpk biw, day 4): 22.3 ± 0.2 g
- Tumor Volume (1 mpk biw, day 4): 669 ± 107 mm^3
- Body Weight (1 mpk biw, day 7): 22.2 ± 0.2 g
- Tumor Volume (1 mpk biw, day 7): 1009 ± 156 mm^3
- Body Weight (1 mpk biw, day 9): 21.5 ± 0.2 g
- Tumor Volume (1 mpk biw, day 9): 1318 ± 146 mm^3
- Body Weight (1 mpk biw, day 11): 20.1 ± 0.1 g
- Tumor Volume (1 mpk biw, day 11): 1526 ± 160 mm^3
- Body Weight (1 mpk biw, day 14): 19.4 ± 0.0 g
- Tumor Volume (1 mpk biw, day 14): 1650 ± 218 mm^3
- Body Weight (1 mpk qw, day 0): 22.5 ± 0.6 g
- Tumor Volume (1 mpk qw, day 0): 178 ± 4 mm^3
- Body Weight (1 mpk qw, day 2): 22.2 ± 0.5 g
- Tumor Volume (1 mpk qw, day 2): 257 ± 26 mm^3
- Body Weight (1 mpk qw, day 4): 22.6 ± 0.5 g
- Tumor Volume (1 mpk qw, day 4): 627 ± 112 mm^3
- Body Weight (1 mpk qw, day 7): 22.3 ± 0.3 g
- Tumor Volume (1 mpk qw, day 7): 934 ± 176 mm^3
- Body Weight (1 mpk qw, day 9): 22.2 ± 0.3 g
- Tumor Volume (1 mpk qw, day 9): 1253 ± 182 mm^3
- Body Weight (1 mpk qw, day 11): 20.5 ± 0.3 g
- Tumor Volume (1 mpk qw, day 11): 1593 ± 251 mm^3
- Body Weight (1 mpk qw, day 14): 19.6 ± 0.2 g
- Tumor Volume (1 mpk qw, day 14): 1814 ± 320 mm^3
- Body Weight (3 mpk biw, day 0): 23.1 ± 0.6 g
- Tumor Volume (3 mpk biw, day 0): 178 ± 15 mm^3
- Body Weight (3 mpk biw, day 2): 22.8 ± 0.9 g
- Tumor Volume (3 mpk biw, day 2): 196 ± 16 mm^3
- Body Weight (3 mpk biw, day 4): 22.5 ± 0.7 g
- Tumor Volume (3 mpk biw, day 4): 100 ± 10 mm^3
- Body Weight (3 mpk biw, day 7): 23.4 ± 0.8 g
- Tumor Volume (3 mpk biw, day 7): 39 ± 8 mm^3
- Body Weight (3 mpk biw, day 9): 24 ± 1.1 g
- Tumor Volume (3 mpk biw, day 9): 18 ± 10 mm^3
- Body Weight (3 mpk biw, day 11): 24.5 ± 0.9 g
- Tumor Volume (3 mpk biw, day 11): 8 ± 8 mm^3
- Body Weight (3 mpk biw, day 14): 24.7 ± 0.9 g
- Tumor Volume (3 mpk biw, day 14): 3 ± 3 mm^3
- Body Weight (3 mpk qw, day 0): 22.6 ± 0.3 g
- Tumor Volume (3 mpk qw, day 0): 179 ± 18 mm^3
- Body Weight (3 mpk qw, day 2): 21.4 ± 0.2 g
- Tumor Volume (3 mpk qw, day 2): 191 ± 17 mm^3
- Body Weight (3 mpk qw, day 4): 21.8 ± 0.8 g
- Tumor Volume (3 mpk qw, day 4): 183 ± 90 mm^3
- Body Weight (3 mpk qw, day 7): 22.0 ± 1.1 g
- Tumor Volume (3 mpk qw, day 7): 218 ± 149 mm^3
- Body Weight (3 mpk qw, day 9): 21.3 ± 0.7 g
- Tumor Volume (3 mpk qw, day 9): 266 ± 142 mm^3
- Body Weight (3 mpk qw, day 11): 21.4 ± 0.5 g
- Tumor Volume (3 mpk qw, day 11): 254 ± 125 mm^3
- Body Weight (3 mpk qw, day 14): 21.0 ± 0.6 g
- Tumor Volume (3 mpk qw, day 14): 306 ± 119 mm^3
- Body Weight (10 mpk biw, day 0): 22.5 ± 1.0 g
- Tumor Volume (10 mpk biw, day 0): 180 ± 21 mm^3
- Body Weight (10 mpk biw, day 2): 21.8 ± 1.2 g
- Tumor Volume (10 mpk biw, day 2): 182 ± 41 mm^3
- Body Weight (10 mpk biw, day 4): 21.8 ± 1.1 g
- Tumor Volume (10 mpk biw, day 4): 58 ± 14 mm^3
- Body Weight (10 mpk biw, day 7): 22.7 ± 0.9 g
- Tumor Volume (10 mpk biw, day 7): 32 ± 7 mm^3
- Body Weight (10 mpk biw, day 9): 22.1 ± 0.9 g
- Tumor Volume (10 mpk biw, day 9): 27 ± 14 mm^3
- Body Weight (10 mpk biw, day 11): 22 ± 1.1 g
- Tumor Volume (10 mpk biw, day 11): 26 ± 13 mm^3
- Body Weight (10 mpk biw, day 14): 22.6 ± 1.0 g
- Tumor Volume (10 mpk biw, day 14): 20 ± 11 mm^3
- Body Weight (10 mpk qw, day 0): 22.6 ± 1.2 g
- Tumor Volume (10 mpk qw, day 0): 179 ± 14 mm^3
- Body Weight (10 mpk qw, day 2): 21.1 ± 1.2 g
- Tumor Volume (10 mpk qw, day 2): 146 ± 19 mm^3
- Body Weight (10 mpk qw, day 4): 22.1 ± 1.2 g
- Tumor Volume (10 mpk qw, day 4): 35 ± 4 mm^3
- Body Weight (10 mpk qw, day 7): 23.2 ± 1.0 g
- Tumor Volume (10 mpk qw, day 7): 25 ± 3 mm^3
- Body Weight (10 mpk qw, day 9): 22.7 ± 1.1 g
- Tumor Volume (10 mpk qw, day 9): 15 ± 8 mm^3
- Body Weight (10 mpk qw, day 11): 23.8 ± 1.3 g
- Tumor Volume (10 mpk qw, day 11): 5 ± 5 mm^3
- Body Weight (10 mpk qw, day 14): 24.8 ± 1.5 g
- Tumor Volume (10 mpk qw, day 14): 5 ± 5 mm^3
- Best response at 10 mg/kg (HT1080, 10 mg/kg): CR
- TGI (HT1080, 1 mpk, biw, day 14): 26.5%
- Tumor Volume (HT1080, 1 mpk, biw, day 14): 1650 ± 218 mm^3
- TGI (HT1080, 1 mpk, qw, day 14): 18.4%
- Tumor Volume (HT1080, 1 mpk, qw, day 14): 1814 ± 320 mm^3
- TGI (HT1080, 3 mpk, biw, day 14): 108.7%
- Tumor Volume (HT1080, 3 mpk, biw, day 14): 3 ± 3 mm^3
- TGI (HT1080, 3 mpk, qw, day 14): 93.7%
- Tumor Volume (HT1080, 3 mpk, qw, day 14): 306 ± 119 mm^3
- TGI (HT1080, 10 mpk, biw, day 14): 108.0%
- Tumor Volume (HT1080, 10 mpk, biw, day 14): 20 ± 11 mm^3
- TGI (HT1080, 10 mpk, qw, day 14): 108.7%
- Tumor Volume (HT1080, 10 mpk, qw, day 14): 5 ± 5 mm^3
- Minimally Effective Dose IV BIW (HT1080, dose leading to tumor-stasis): <3 mg/kg
- tumor response (after 2 weeks, 3 mg/kg biw, 10 mg/kg qw and 10 mg/kg biw): completely regressed
- animals with re-growth to 150 mm3 following cessation of dosing (previously 3 mg/kg biw): 3/3
- animals with re-growth to 150 mm3 following cessation of dosing (previously 10 mg/kg qw): 1/3
